Assay results published in ChEMBL document CHEMBL1201862, “PubChem BioAssay data set” (2004).
Activity calls are given as the source filed them. For most assays here, no stated cut-off is given here; in the data, actives have a measured EC50 and inactives only a lower limit.

Columns and labels:
[1] = inhibitors of SNCA 5'UTR-driven reporter translation, confirmation, H4 neuroglioma cells, luminescence (AID 1988); type: functional, cell-based
[2] = inhibitors of firefly luciferase expression or activity, dose response, H4 neuroglioma cells, luminescence (AID 1990); type: functional, cell-based
[3] = target: T1, Apoptotic protease-activating factor 1 (Homo sapiens, UniProt O14727); type: functional
T1 sequence (O14727 whole entry): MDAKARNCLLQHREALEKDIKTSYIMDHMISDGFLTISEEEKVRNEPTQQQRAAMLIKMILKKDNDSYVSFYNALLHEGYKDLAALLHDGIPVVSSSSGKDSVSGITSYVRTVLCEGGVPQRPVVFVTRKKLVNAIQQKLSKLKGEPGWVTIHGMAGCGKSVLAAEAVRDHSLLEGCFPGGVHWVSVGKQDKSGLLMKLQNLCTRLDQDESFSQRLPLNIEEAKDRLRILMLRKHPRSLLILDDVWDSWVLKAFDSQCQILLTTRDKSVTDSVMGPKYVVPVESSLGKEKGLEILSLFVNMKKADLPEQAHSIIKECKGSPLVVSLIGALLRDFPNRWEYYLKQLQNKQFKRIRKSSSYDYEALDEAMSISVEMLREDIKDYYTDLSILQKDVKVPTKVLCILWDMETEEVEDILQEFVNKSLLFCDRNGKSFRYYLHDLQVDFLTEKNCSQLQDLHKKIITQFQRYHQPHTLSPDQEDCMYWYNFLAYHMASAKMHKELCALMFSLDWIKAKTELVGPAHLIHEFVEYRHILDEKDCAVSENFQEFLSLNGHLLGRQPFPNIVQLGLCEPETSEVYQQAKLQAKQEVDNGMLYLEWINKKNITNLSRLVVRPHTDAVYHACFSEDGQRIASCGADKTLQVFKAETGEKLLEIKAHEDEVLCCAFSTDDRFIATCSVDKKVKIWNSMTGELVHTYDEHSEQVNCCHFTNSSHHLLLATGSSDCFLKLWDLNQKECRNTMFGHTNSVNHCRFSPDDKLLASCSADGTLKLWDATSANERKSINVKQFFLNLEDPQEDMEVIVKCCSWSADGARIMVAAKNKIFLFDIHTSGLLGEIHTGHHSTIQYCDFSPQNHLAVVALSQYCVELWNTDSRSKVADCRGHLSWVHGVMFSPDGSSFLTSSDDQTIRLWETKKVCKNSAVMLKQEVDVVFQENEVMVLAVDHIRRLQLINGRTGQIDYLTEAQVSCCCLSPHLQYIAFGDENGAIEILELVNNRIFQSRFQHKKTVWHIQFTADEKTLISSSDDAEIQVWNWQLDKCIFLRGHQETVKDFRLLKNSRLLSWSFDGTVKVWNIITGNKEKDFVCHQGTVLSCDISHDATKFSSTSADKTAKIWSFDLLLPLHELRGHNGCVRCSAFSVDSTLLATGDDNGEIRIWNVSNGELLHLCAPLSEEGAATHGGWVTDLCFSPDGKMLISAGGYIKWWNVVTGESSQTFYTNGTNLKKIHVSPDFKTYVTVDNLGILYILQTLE

[4] = Luminescence Cell-Based Dose Response HTS to Identify Inhibitors of 5'UTR Stem-Loop Driven Prion Protein mRNA Translation in H4 Neuroglioblastoma Cells. [Related pubchem assays: 1827 (Project Summary), 1813 (Primary HTS)]; type: functional
Vero [5] = experiment: Vero cell cytotoxicity, cytotoxicity control for flavivirus capping enzyme inhibitors (AID 588742); type: functional; settings: Chlorocebus sabaeus
Genome polyprotein = Genome polyprotein (dengue virus type 2, UniProt P29990); experiment: Dengue-2 NS5 methyltransferase inhibitors, primary screen, biochemical, confirmation dose response (AID 588689); type: functional
Genome polyprotein, sequence (P29990 2492-3391 limits assumed): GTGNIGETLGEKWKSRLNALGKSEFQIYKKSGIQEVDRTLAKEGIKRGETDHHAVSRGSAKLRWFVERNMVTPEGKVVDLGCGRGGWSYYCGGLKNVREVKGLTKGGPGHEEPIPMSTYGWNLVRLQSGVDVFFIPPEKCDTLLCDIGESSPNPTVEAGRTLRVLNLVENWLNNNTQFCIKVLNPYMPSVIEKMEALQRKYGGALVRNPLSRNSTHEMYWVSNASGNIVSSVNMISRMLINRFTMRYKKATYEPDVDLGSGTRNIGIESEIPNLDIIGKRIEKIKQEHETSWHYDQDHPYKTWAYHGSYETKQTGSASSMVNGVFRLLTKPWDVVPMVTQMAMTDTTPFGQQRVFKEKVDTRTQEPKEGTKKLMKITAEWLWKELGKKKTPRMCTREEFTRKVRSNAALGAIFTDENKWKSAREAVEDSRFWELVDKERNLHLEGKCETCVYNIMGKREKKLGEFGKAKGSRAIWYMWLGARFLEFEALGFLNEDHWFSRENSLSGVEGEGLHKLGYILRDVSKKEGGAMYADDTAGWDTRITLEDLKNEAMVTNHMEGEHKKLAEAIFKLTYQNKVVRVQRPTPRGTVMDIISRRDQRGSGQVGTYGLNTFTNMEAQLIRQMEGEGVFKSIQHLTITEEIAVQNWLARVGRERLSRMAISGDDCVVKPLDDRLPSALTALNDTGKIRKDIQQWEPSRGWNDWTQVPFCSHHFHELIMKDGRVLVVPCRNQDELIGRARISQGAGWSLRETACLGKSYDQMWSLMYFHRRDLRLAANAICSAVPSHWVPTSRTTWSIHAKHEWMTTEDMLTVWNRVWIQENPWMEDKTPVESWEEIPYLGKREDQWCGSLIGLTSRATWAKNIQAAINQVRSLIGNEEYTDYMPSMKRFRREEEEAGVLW

[6] = C. albicans growth with fluconazole, confirmation, fluorescence, retest (AID 2467); type: functional, cell-based
[7] = target: Serine/threonine-protein phosphatase (Candida dubliniensis (strain CD36 / CBS 7987 / NCPF 3949 / NRRLY-17841) (Yeast), UniProt B9W6M3); experiment: calcineurin pathway inhibitors in yeast reporter, dose response, S. cerevisiae, CDRE-lacZ, luminescence, secondary (AID 2388); type: functional, cell-based;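 further: yeast reporter cells carrying a calcineurin-responsive lacZ construct stimulated with calcium chloride; luminescent beta-galactosidase reporter signal in whole cells rather than isolated phosphatase activity; potency for inhibition where a drop in reporter signal means calcineurin blockade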
Serine/threonine-protein phosphatase, sequence (B9W6M3 whole entry): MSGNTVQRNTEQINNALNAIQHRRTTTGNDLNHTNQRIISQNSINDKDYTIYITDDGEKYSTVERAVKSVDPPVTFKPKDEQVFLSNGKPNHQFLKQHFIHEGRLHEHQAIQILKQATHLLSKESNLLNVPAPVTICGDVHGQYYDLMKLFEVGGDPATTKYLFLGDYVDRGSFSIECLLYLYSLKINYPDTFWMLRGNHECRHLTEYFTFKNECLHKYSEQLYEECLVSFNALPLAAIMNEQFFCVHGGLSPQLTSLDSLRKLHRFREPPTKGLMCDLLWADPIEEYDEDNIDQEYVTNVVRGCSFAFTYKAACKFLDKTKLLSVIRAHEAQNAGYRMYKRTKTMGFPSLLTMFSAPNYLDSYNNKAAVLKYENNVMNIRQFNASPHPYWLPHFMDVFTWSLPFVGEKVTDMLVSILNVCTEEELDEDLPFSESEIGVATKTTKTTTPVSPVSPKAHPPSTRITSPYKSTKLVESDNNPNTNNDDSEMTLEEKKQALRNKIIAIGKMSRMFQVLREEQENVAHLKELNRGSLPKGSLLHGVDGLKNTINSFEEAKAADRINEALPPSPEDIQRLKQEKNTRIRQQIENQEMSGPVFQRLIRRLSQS

[8] = NIH-3T3 fibroblast cytotoxicity, dose response, cytotoxicity control, cell-based, fluorescence, Alamar Blue, secondary assay (AID 2327); type: functional;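 further: NIH-3T3 mouse fibroblasts cultured with fluconazole at 8 µg/mL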
Vero [9] = experiment: cells; type: functional; settings: Chlorocebus sabaeus
[10] = test system: Streptococcus sp. 'group A'; experiment: growth inhibition of control SK(-) GAS strain, dose response, counter-screen for streptokinase expression inhibitor project, luminescence, kanamycin, BacTiterGlo, confirmation (AID 1900); type: functional, organism-based
Streptococcus = experiment: Group A Streptococcus viability loss, dose response, counter-screen for streptokinase expression inhibitor project, luminescence, BacTiterGlo (AID 1915); type: functional, organism-based;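 further: potency for reduction of bacterial viability or growth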
[11] = target: ATP-dependent molecular chaperone HSP82 (Candida albicans (strain WO-1) (Yeast), UniProt C4YTQ8); experiment: loss of DOC-induced GRE-beta-galactosidase reporter signal, dose response, Hsp90 inhibitor project, S. cerevisiae, luminescence (AID 2400); type: functional, cell-based;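 further: beta-galactosidase luminescence from glucocorticoid response element reporter as proxy for Hsp90 function; inhibitor potency where signal loss means Hsp90 inhibition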
ATP-dependent molecular chaperone HSP82, sequence (C4YTQ8 whole entry): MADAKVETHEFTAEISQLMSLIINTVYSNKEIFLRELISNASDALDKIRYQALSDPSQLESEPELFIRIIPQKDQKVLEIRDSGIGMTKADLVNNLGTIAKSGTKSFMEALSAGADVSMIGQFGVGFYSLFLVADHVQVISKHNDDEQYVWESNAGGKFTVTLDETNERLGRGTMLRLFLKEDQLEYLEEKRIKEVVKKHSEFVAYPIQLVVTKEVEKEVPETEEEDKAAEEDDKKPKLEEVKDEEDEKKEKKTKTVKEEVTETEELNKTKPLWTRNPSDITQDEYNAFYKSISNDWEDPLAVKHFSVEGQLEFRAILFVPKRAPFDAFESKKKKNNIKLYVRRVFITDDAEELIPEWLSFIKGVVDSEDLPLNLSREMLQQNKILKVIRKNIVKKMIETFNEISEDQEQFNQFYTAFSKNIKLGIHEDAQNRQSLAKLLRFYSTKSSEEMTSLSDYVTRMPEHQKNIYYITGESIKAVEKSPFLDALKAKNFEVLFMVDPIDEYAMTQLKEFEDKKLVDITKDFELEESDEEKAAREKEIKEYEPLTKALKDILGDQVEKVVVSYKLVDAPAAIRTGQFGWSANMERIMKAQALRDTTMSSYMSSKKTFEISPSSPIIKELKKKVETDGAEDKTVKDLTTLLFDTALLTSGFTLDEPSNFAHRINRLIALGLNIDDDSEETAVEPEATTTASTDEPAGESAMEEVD

Phospholipase A2 = Phospholipase A2 (Homo sapiens, UniProt P04054); type: functional;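 further: confirmatory dose-response counterscreen on phospholipase A2, testing hits that came from an ultra-high-throughput screen for ATG4B inhibitors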
Phospholipase A2, sequence (P04054 whole entry): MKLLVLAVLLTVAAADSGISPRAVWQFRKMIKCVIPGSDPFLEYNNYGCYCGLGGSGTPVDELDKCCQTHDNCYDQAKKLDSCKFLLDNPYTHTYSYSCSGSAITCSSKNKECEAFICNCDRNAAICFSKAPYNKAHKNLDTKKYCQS

Prothrombin = Prothrombin (Homo sapiens, UniProt P00734); experiment: Thrombin 1536 HTS Dose Response Confirmation. [Related pubchem assays: 1046 (Thrombin 1536 HTS; hits were confirmed in this assay)]; type: functional
Cysteine protease ATG4B = Cysteine protease ATG4B (Homo sapiens, UniProt Q9Y4P1); type: functional;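 further: Fluorescence-based dose-response confirmation assay measuring inhibition of ATG4B activity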
Cysteine protease ATG4B, sequence (Q9Y4P1 whole entry): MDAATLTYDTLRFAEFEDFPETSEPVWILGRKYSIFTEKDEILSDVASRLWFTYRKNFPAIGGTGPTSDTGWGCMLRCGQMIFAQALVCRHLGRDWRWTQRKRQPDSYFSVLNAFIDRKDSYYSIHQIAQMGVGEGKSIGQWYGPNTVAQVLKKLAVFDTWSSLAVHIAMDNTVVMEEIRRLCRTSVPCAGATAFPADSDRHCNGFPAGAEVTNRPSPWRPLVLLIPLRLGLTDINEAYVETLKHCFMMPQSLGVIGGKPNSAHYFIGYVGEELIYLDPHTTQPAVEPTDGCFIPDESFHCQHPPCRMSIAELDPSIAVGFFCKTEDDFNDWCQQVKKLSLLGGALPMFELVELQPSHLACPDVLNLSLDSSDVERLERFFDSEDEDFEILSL

[12] = target: Dual specificity tyrosine-phosphorylation-regulated kinase 1A (Rattus norvegicus, UniProt Q63470); type: biochemical, Homo sapiens
Beta-galactosidase = Beta-galactosidase (Escherichia coli, UniProt Q8VNN2); experiment: PubChem AID 485352; type: functional
Beta-galactosidase, sequence (Q8VNN2 whole entry): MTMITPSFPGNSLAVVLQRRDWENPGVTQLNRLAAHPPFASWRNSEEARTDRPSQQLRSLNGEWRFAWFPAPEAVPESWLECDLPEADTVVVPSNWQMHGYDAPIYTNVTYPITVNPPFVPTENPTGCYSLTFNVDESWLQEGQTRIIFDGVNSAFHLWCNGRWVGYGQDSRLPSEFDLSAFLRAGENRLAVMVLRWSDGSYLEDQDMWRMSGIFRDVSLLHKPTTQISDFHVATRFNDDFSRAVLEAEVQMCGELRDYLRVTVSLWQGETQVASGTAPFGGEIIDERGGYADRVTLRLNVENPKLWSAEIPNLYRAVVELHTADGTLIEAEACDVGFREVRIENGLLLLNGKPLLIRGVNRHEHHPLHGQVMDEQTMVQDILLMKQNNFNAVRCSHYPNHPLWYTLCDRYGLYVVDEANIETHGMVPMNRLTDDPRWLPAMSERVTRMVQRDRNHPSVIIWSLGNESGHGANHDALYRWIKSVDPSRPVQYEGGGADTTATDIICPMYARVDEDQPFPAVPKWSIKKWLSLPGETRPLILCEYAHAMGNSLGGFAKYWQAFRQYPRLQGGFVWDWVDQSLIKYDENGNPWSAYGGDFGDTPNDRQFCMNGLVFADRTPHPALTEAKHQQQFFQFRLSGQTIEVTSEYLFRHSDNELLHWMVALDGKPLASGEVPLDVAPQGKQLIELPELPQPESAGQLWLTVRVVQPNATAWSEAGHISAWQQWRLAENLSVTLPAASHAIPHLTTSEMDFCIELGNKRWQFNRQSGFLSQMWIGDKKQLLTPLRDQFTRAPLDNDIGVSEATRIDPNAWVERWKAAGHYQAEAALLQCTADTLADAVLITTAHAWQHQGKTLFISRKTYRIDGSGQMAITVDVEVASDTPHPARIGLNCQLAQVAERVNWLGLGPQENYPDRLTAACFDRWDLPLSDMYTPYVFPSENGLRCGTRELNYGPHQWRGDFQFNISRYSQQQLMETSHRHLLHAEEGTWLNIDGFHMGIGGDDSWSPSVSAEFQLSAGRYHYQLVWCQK

[13] = target: T2, Type-1 angiotensin II receptor (Homo sapiens, UniProt P30556); experiment: AT1 receptor antagonists, dose response, selectivity assay for APJ receptor antagonist project, cell-based, uHTS hits (AID 463214); type: functional;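 further: antagonist potency against angiotensin II stimulated AT1 response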
T2 sequence (P30556 whole entry): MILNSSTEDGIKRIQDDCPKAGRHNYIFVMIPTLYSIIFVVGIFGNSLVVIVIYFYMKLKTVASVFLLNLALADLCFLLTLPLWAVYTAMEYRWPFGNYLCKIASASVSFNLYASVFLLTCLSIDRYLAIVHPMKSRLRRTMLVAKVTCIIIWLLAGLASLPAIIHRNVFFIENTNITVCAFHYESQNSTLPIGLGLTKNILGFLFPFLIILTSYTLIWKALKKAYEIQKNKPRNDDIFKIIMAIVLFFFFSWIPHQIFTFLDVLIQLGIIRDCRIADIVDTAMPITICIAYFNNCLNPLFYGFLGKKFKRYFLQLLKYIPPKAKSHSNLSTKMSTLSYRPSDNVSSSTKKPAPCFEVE

Cc1c(CCC(C)C)c(O)n2c(nc3ccccc32)c1C#N
EC50 [1]: > 120 µM (not active) | EC50 [2]: 69.3 µM (active) | IC50 [3]: 38.6 µM (active) | EC50 [4]: > 120 µM (not active)

O=C(NCC(c1cccs1)N1CCOCC1)c1ccccc1NS(=O)(=O)c1ccc(Cl)c([N+](=O)[O-])c1 (centres undefined)
CC50 (Vero [5]): 38.8 µM (active) | IC50 (Genome polyprotein): > 100 µM (active)

COc1ccc(C(=O)NC(=S)NNC(=O)c2ccc(C)cc2)cc1
EC50 [6]: 1.12 µM (active) | EC50 [7]: > 180 µM (inactive) | EC50 [8]: > 150 µM (inactive) | CC50 (Vero [9]): > 25 µM (active) | EC50 [10]: 0.361 µM (active) | EC50 (Streptococcus): 6.72 µM (active) | EC50 [11]: 5.92 µM (active)

O=C(NN=C1CCCCCC1)c1cn(-c2ccccc2)nc1-c1ccccc1
IC50 (Phospholipase A2): 20.8 µM (inactive) | IC50 (Prothrombin): > 50 µM (not active) | IC50 (Cysteine protease ATG4B): 13.8 µM (active)

Cc1oc2ncnc(N)c2c1C
AC50 [12]: 1.4 µM (active)

CC(C)NC(=S)N/N=C1\CCCCC1C1CCCCC1 (centres undefined)
EC50 (Beta-galactosidase): > 40 µM (inactive) | IC50 [13]: > 40 µM (not active)
